Reference: patent US8846933B2, “N-link hydroxamic acid derivatives useful as antibacterial agents” (Pfizer Inc., priority 2009, dated 2014)

What was measured:
[1] = system: Escherichia coli EC-1: VOGEL, mouse virulent; test: MIC determination (CLSI), strain EC-1; assay type: cell-based; conditions: strain EC-1, unit assumed
Method in brief: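 The mouse-virulent VOGEL isolate of E. coli, EC-1, served as test organism. Minimum inhibitory concentration was measured by CLSI dilution methodology (M7-A7; M100-S18 standards).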

[2] = system: Pseudomonas aeruginosa UI-18: Wild-type (PA-7); test: MIC determination (CLSI), strain PA-7; assay type: cell-based; conditions: strain PA-7, unit assumed
Method in brief: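 Strain tested was P. aeruginosa UI-18, a wild-type isolate labelled PA-7. Minimum inhibitory concentrations followed CLSI dilution methodology for aerobically growing bacteria (M7-A7, M100-S18).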

[3] = generated in the same manner as in Table 4

| SMILES | EC-1 (MIC) [1] [µg/mL] | PA-7 (MIC) [2] [µg/mL] | EC-1 (MIC) [1, 3] [µg/mL] | PA-7 (MIC) [2, 3] [µg/mL] |
| --- | --- | --- | --- | --- |
| C[C@@](CCn1ccc(-c2ccc(SCC#N)cc2)cc1=O)(C(=O)NO)S(C)(=O)=O [Example 355, (2R)-4-[4-{4-[(cyanomethyl)thio]phenyl}-2-oxopyridin-1(2H)-yl]-N-hydroxy-2-methyl-2-(methylsulfonyl)butanamide] | 4 | 2 | – | – |
| COCc1ccccc1-c1ccn(CCC(C)(C(=O)NO)S(C)(=O)=O)c(=O)c1 (stereo not shown) [Example 191, N-hydroxy-4-{4-[2-(methoxymethyl)phenyl]-2-oxopyridin-1(2H)-yl}-2-methyl-2-(methylsulfonyl)butanamide] | > 64 | > 64 | – | – |
| COc1cccc(-c2ccn(CCC(C)(C(=O)NO)S(C)(=O)=O)c(=O)c2)c1F (stereo not shown) [Example 90] | – | – | 0.5 | 2 |
| COc1ccc(-c2ccn(CCC(C)(C(=O)NO)S(C)(=O)=O)c(=O)c2)cc1 (stereo not shown) [Example 170, N-hydroxy-4-[4-(4-methoxyphenyl)-2-oxopyridin-1(2H)-yl]-2-methyl-2-(methylsulfonyl)butanamide] | – | – | 1 | 1 |
| CC(CCn1ccc(-c2cccc(C(F)(F)F)c2)cc1=O)(C(=O)NO)S(C)(=O)=O (stereo not shown) [Example 143, N-hydroxy-2-methyl-2-(methylsulfonyl)-4-{2-oxo-4-[3-(trifluoromethyl)phenyl]pyridin-1(2H)-yl}butanamide] | – | – | 4 | 8 |
| CC(C)Oc1ccc(-c2ccn(CC[C@](C)(C(=O)NO)S(C)(=O)=O)c(=O)c2)cc1 [Example 390, (2R)-N-hydroxy-4-[4-(4-isopropoxyphenyl)-2-oxopyridin-1(2H)-yl]-2-methyl-2-(methylsulfonyl)butanamide] | 0.25 | 0.5 | – | – |
| CC(CCn1ccc(-c2ccc(OCCCCO)cc2Cl)cc1=O)(C(=O)NO)S(C)(=O)=O (stereo not shown) [Example 239, 4-{4-[2-chloro-4-(4-hydroxybutoxy)phenyl]-2-oxopyridin-1(2H)-yl}-N-hydroxy-2-methyl-2-(methylsulfonyl)butanamide] | 1 | 4 | – | – |
| CC(CCn1ccc(-c2ccc(OCCCc3cccnc3)cc2)cc1=O)(C(=O)NO)S(C)(=O)=O (stereo not shown) [Example 88] | – | – | 0.25 | 2 |
| CC(CCn1ccc(-c2ccc(Br)cc2F)cc1=O)(C(=O)NO)S(C)(=O)=O (stereo not shown) [Example 283, 4-[4-(4-bromo-2-fluorophenyl)-2-oxopyridin-1(2H)-yl]-N-hydroxy-2-methyl-2-(methylsulfonyl)butanamide] | 0.25 | 1 | – | – |
| CC(CCn1ccc(-c2ccc3ccncc3c2)cc1=O)(C(=O)NO)S(C)(=O)=O (stereo not shown) [Example 261, N-hydroxy-4-(4-isoquinolin-7-yl-2-oxopyridin-1(2H)-yl)-2-methyl-2-(methylsulfonyl)butanamide] | 8 | 4 | – | – |
| C[C@@](CCn1ccc(-c2ccc(-c3cscn3)cc2)cc1=O)(C(=O)NO)S(C)(=O)=O [Example 405, (2R)-N-hydroxy-2-methyl-2-(methylsulfonyl)-4-{2-oxo-4-[4-(1,3-thiazol-4-yl)phenyl]pyridin-1(2H)-yl}butanamide] | 0.125 | 1 | – | – |
| CC(CCn1ccc(-c2ccc(OCCO)c(Cl)c2)cc1=O)(C(=O)NO)S(C)(=O)=O (stereo not shown) [Example 236, 4-{4-[3-chloro-4-(2-hydroxyethoxy)phenyl]-2-oxopyridin-1(2H)-yl}-N-hydroxy-2-methyl-2-(methylsulfonyl)butanamide] | 32 | 16 | – | – |
| COCCOCCOc1ccc(-c2ccn(CC[C@](C)(C(=O)NO)S(C)(=O)=O)c(=O)c2)cc1 [Example 403, (2R)-N-hydroxy-4-[4-{4-[2-(2-methoxyethoxy)ethoxy]phenyl}-2-oxopyridin-1(2H)-yl]-2-methyl-2-(methylsulfonyl)butanamide] | 1 | 4 | – | – |
| Cc1cn(-c2ccc(-c3ccn(CC[C@](C)(C(=O)NO)S(C)(=O)=O)c(=O)c3)cc2)nn1 [Example 377, (2R)-N-hydroxy-2-methyl-2-(methylsulfonyl)-4-{4-[4-(4-methyl-1H-1,2,3-triazol-1-yl)phenyl]-2-oxopyridin-1(2H)-yl}butanamide] | 8 | 8 | – | – |
| CC(CCn1ccc(-c2ccc(OCc3ccccn3)cc2)cc1=O)(C(=O)NO)S(C)(=O)=O (stereo not shown) [Example 270, N-hydroxy-2-methyl-2-(methylsulfonyl)-4-{2-oxo-4-[4-(pyridin-2-ylmethoxy)phenyl]pyridin-1(2H)-yl}butanamide] | 1 | 2 | – | – |
| COc1ccc(OC)c(-c2ccn(CCC(C)(C(=O)NO)S(C)(=O)=O)c(=O)c2)c1 (stereo not shown) [Example 195, 4-[4-(2,5-dimethoxyphenyl)-2-oxopyridin-1(2H)-yl]-N-hydroxy-2-methyl-2-(methylsulfonyl)butanamide] | > 64 | > 64 | – | – |

| SMILES | EC-1 (MIC) [1] [µg/mL] | PA-7 (MIC) [2] [µg/mL] | EC-1 (MIC) [1, 3] [µg/mL] | PA-7 (MIC) [2, 3] [µg/mL] |
| --- | --- | --- | --- | --- |
| CC(CCn1ccc(-c2cccnc2)cc1=O)(C(=O)NO)S(C)(=O)=O (stereo not shown) [Example 219, N-hydroxy-2-methyl-2-(methylsulfonyl)-4-(2′-oxo-3,4′-bipyridin-1′(2′H)-yl)butanamide] | > 64 | > 64 | – | – |
| CC(CCn1ccc(-c2ccc(OCCCn3cncn3)cc2)cc1=O)(C(=O)NO)S(C)(=O)=O (stereo not shown) [Example 92, N-hydroxy-2-methyl-2-(methylsulfonyl)-4-[2-oxo-4-{4-[3-(1H-1,2,4-triazol-1-yl)propoxy]phenyl}pyridin-1(2H)-yl]butanamide] | – | – | 8 | 16 |
| CC(CCn1ccc(-c2ccc(OCc3ccncc3)cc2)cc1=O)(C(=O)NO)S(C)(=O)=O (stereo not shown) [Example 268, N-hydroxy-2-methyl-2-(methylsulfonyl)-4-{2-oxo-4-[4-(pyridin-4-ylmethoxy)phenyl]pyridin-1(2H)-yl}butanamide] | 1 | 2 | – | – |
| C[C@@](CCn1ccc(-c2ccc(Oc3ncccc3Cl)cc2)cc1=O)(C(=O)NO)S(C)(=O)=O [Example 440, (2R)-4-[4-{4-[(3-chloropyridin-2-yl)oxy]phenyl}-2-oxopyridin-1(2H)-yl]-N-hydroxy-2-methyl-2-(methylsulfonyl)butanamide] | 0.06 | 2 | – | – |
| CC(CCn1ccc(-c2ccc(OCCCN3CCC(O)CC3)cc2)cc1=O)(C(=O)NO)S(C)(=O)=O (stereo not shown) [Example 83, N-hydroxy-4-[4-{4-[3-(4-hydroxypiperidin-1-yl)propoxy]phenyl}-2-oxopyridin-1(2H)-yl]-2-methyl-2-(methylsulfonyl)butanamide] | – | – | 32 | 16 |
| C[C@@](CCn1ccc(-c2ccc3cc(N4CCC(O)CC4)ccc3c2)cc1=O)(C(=O)NO)S(C)(=O)=O [Example 381, (2R)-N-hydroxy-4-{4-[6-(4-hydroxypiperidin-1-yl)-2-naphthyl]-2-oxopyridin-1(2H)-yl}-2-methyl-2-(methylsulfonyl)butanamide] | 1 | 16 | – | – |
| COc1cc(-c2ccn(CCC(C)(C(=O)NO)S(C)(=O)=O)c(=O)c2)ccc1OCCCO (stereo not shown) [Example 249, N-hydroxy-4-{4-[4-(3-hydroxypropoxy)-3-methoxyphenyl]-2-oxopyridin-1(2H)-yl}-2-methyl-2-(methylsulfonyl)butanamide] | > 64 | 64 | – | – |
| COc1ccc(-c2ccn(CC[C@](C)(C(=O)NO)S(C)(=O)=O)c(=O)c2C)cc1 [Example 397, (2R)-N-hydroxy-4-[4-(4-methoxyphenyl)-3-methyl-2-oxopyridin-1(2H)-yl]-2-methyl-2-(methylsulfonyl)butanamide] | 0.25 | 1 | – | – |
| C[C@@](CCn1ccc(-c2ccc(Oc3ncccn3)cc2)cc1=O)(C(=O)NO)S(C)(=O)=O [Example 424, (2R)-N-hydroxy-2-methyl-2-(methylsulfonyl)-4-{2-oxo-4-[4-(pyrimidin-2-yloxy)phenyl]pyridin-1(2H)-yl}butanamide] | 4 | 4 | – | – |
| Cc1ccc(-c2ccn(CC[C@](C)(C(=O)NO)S(C)(=O)=O)c(=O)c2)cc1C#N [Example 476] | 16 | 8 | – | – |
| CC(C#N)Sc1ccc(-c2ccn(CC[C@](C)(C(=O)NO)S(C)(=O)=O)c(=O)c2)cc1 (stereo partly shown) [Example 357] | 1 | 1 | – | – |
| CC(CCn1ccc(-c2ccc(F)cc2Cl)cc1=O)(C(=O)NO)S(C)(=O)=O (stereo not shown) [Example 155, 4-[4-(2-chloro-4-fluorophenyl)-2-oxopyridin-1(2H)-yl]-N-hydroxy-2-methyl-2-(methylsulfonyl)butanamide] | – | – | 4 | 0.5 |
| CC(CCn1ccc(-c2ccsc2)cc1=O)(C(=O)NO)S(C)(=O)=O (stereo not shown) [Example 107, N-hydroxy-2-methyl-2-(methylsulfonyl)-4-[2-oxo-4-(3-thienyl)pyridin-1(2H)-yl]butanamide] | – | – | 32 | 16 |
| Cc1cn(CCC(C)(C(=O)NO)S(C)(=O)=O)c(=O)cc1-c1ccccc1 (stereo not shown) [Example 284, N-hydroxy-2-methyl-4-(5-methyl-2-oxo-4-phenylpyridin-1(2H)-yl)-2-(methylsulfonyl)butanamide] | 32 | 64 | – | – |
| CC(C)(O)Cc1ccc(-c2ccn(CCC(C)(C(=O)NO)S(C)(=O)=O)c(=O)c2)cc1 (stereo not shown) [Example 255, N-hydroxy-4-{4-[4-(2-hydroxy-2-methylpropyl)phenyl]-2-oxopyridin-1(2H)-yl}-2-methyl-2-(methylsulfonyl)butanamide] | 2 | 8 | – | – |
| COc1cc(-c2ccn(CCC(C)(C(=O)NO)S(C)(=O)=O)c(=O)c2)ccc1OCCCCO (stereo not shown) [Example 242, N-hydroxy-4-{4-[4-(4-hydroxybutoxy)-3-methoxyphenyl]-2-oxopyridin-1(2H)-yl}-2-methyl-2-(methylsulfonyl)butanamide] | 32 | 64 | – | – |
